Data as given in patent publication US8129527B2, “Analogs of dehydrophenylahistins and their therapeutic use” (Nereus Pharmacuticals, Inc., priority 2006, dated 2012).
pEC50: −log10 of the molar value. Read-outs that look alike come from different tables or passages of the source.

Legend:
[1] = test system: HT-29 cells; test: Additional cytotoxicity assays, resazurin (Table 3.1); type: cell-based, human; settings: for EC50: Homo sapiens
Procedure: 10× concentrated serial dilutions of the two compounds were prepared in appropriate culture medium for final concentrations ranging from 2.0×10^−5 M to 2.0×10^−10 M. Ten μl volumes of the 10× serial dilutions were added to the test wells in triplicate and the plates returned to the incubator for 48 hours.
(§1) Following 48 hours of drug exposure 10 μl of 0.2 mg/ml resazurin (obtained from Sigma-Aldrich Chemical Co.) in Mg^2+, Ca^2+ free PBS was added to each well and the plates were returned to the incubator for 3-4 hours. […] Resazurin dye without cells was used to determine the background, which was subtracted from the data for all experimental wells. The data were analyzed using Prism software (GraphPad Software).
Additional cytotoxicity assays were performed as described above under this example, using Resazurin fluorescence as an indicator of cell viability.

[2] = test system: HT-29 human colorectal carcinoma cells; test: Cell growth inhibition assay, resazurin (Table 3.2); type: cell-based
Procedure: The cytotoxic effects of various derivatives of dehydrophenylahistin against HT-29 human colorectal carcinoma cells were determined.
HT-29 cells (ATCC; HTB-38) were maintained in ATCC recommended culture media and cultured in an incubator at 37° C. in 5% CO2 and 95% humidified air.
For cell growth inhibition assays, HT-29 cells were seeded at 5×10^3 cells/well in 90 μl complete media into a Corning 3904 black-walled, clear-bottom tissue culture plates and the plates were incubated overnight to allow cells to establish and enter log phase growth. 20 mM stock solutions of compounds were prepared in 100% DMSO and stored at −80° C. 10× concentrated serial dilutions of the compounds were prepared in culture medium for final concentrations ranging from 20 μM to […]. Ten μl volumes of the 10× serial dilutions were added to the test wells in triplicate and the plates returned to the incubator for 48 hours. The final concentration of DMSO was 0.25% in all samples.
as §1, with “exposure,” for “exposure”, “phosphate buffered saline” for “PBS”, “dye in medium” for “dye”, “wells.” for “wells. The data were analyzed using Prism software (GraphPad Software).”

[3] = test system: HT-29 human colon cells; test: Tumor cytotoxicity assay, resazurin fluorescence, 48 h (Example 6); type: cell-based; settings: for EC50 / pEC50: Homo sapiens; for EC50: Table 3, read-out: EC50 (nM) HT-29; for cytotoxic activity against HT-29 cells / activity compared with tBu-dehydroPLH: in words
[4] = HT-29, Table 3.1, read-out: EC50 (M) Mean
[5] = Table 3.2, HT-29 cells, read-out: EC50 (M) Mean
[6] = HT-29, Table 5, synthetic potent dehydroPLH derivatives, read-out: EC50
[7] = Table 7, electron-withdrawing group, proliferation of HT-29 cells, read-out: EC50
[8] = Table 8, electron-donating group, proliferation of HT-29 cells, read-out: EC50
[9] = Table 11, replacement with the heteroaryl ring, proliferation of HT-29 cells, read-out: EC50

For COc1cccc(/C=c2\[nH]c(=O)/c(=C/c3nc[nH]c3C(C)(C)C)[nH]c2=O)c1N [Compound 2455, tBu-delta-PLH-2-NH2-3-OMe], the EC50 [1, 4] was 3.49e-07 M and the “% cytotox Mean” value ([1]; Table 3.1) was 87%.

For CC(C)(C)c1[nH]cnc1/C=c1\[nH]c(=O)/c(=C/c2ccccc2N)[nH]c1=O [Compound 2457, tBu-delta-PLH-2-NH2], the EC50 [1, 4] was 4.32e-07 M and the “% cytotox Mean” value ([1]; Table 3.1) was 86%.

With CC(C)(C)c1[nH]cnc1/C=c1\[nH]c(=O)/c(=C/c2cccc(N)c2)[nH]c1=O [Compound 2458, tBu-delta-PLH-m-NH2] the EC50 ([1]; HT-29, read-out: EC50 (M) Mean) was 3.1e-08 M and the “% cytotox Mean” value ([1]; Table 3.1) was 87%.

For CC(C)(C)c1[nH]cnc1/C=c1\[nH]c(=O)/c(=C/c2sccc2B(O)O)[nH]c1=O [Compound 2459, tBu-delta-PLH-3-B(OH)2-2-thienyl], the EC50 [1, 4] was 2.53e-08 M and the “% cytotox Mean” value ([1]; Table 3.1) was 88%.

CC(C)(C)c1[nH]cnc1/C=c1\[nH]c(=O)/c(=C/c2cc(Cl)ccc2N)[nH]c1=O [Compound 2461, tBu-delta-PLH-5-Cl-2-NH2] gave an EC50 [2, 5] of 2.95e-07 M.

In the case of COc1cccc(/C=c2\[nH]c(=O)/c(=C/c3ncoc3C(C)(C)C)[nH]c2=O)c1 [Compound 2462, tBu-Oxadelta-PLH-m-OMe], the EC50 ([2]; HT-29, read-out: EC50 (M) Mean) was 5.41e-08 M.

CC(C)(C)c1ocnc1/C=c1\[nH]c(=O)/c(=C/c2cccc3ccccc23)[nH]c1=O [Compound 2464, tBu-Oxadelta-PLH-1-naphth] showed an EC50 ([2]; HT-29, read-out: EC50 (M) Mean) of 5.37e-08 M.

CC(C)(C)c1ocnc1/C=c1\[nH]c(=O)/c(=C/c2ccccc2Cl)[nH]c1=O [Compound 2465, tBu-Oxadelta-PLH-2-Cl] gave an EC50 [2, 5] of 5.4e-08 M.

With Cc1cccc(/C=c2\[nH]c(=O)/c(=C/c3ncoc3C(C)(C)C)[nH]c2=O)c1 [Compound 2466, tBu-Oxadelta-PLH-3-CH3] the EC50 ([2]; HT-29, read-out: EC50 (M) Mean) was 5.55e-08 M.

Work on CC(C)(C)c1ocnc1/C=c1\[nH]c(=O)/c(=C/c2cccc(Cl)c2)[nH]c1=O [Compound 2467, tBu-Oxadelta-PLH-3-Cl] yielded an EC50 ([2]; HT-29, read-out: EC50 (M) Mean) of 5.41e-08 M.

In the case of CC(C)(C)c1ocnc1/C=c1\[nH]c(=O)/c(=C/c2cccc(Cl)c2Cl)[nH]c1=O [Compound 2468, tBu-Oxadelta-PLH-2,3-diCl], the EC50 ([2]; HT-29, read-out: EC50 (M) Mean) was 7.92e-08 M.

COc1cc(/C=c2\[nH]c(=O)/c(=C/c3ncoc3C(C)(C)C)[nH]c2=O)cc(OC)c1 [Compound 2469, tBu-Oxadelta-PLH-3,5-diOMe] was tested, and the EC50 [2, 5] was 8.63e-08 M.

In the case of CC(C)(C)c1ocnc1/C=c1\[nH]c(=O)/c(=C/c2cc(Cl)cc(Cl)c2)[nH]c1=O [Compound 2470, tBu-Oxadelta-PLH-3,5-diCl], the EC50 [2, 5] was 2.78e-07 M.

CCOc1cccc(/C=c2\[nH]c(=O)/c(=C/c3ncoc3C(C)(C)C)[nH]c2=O)c1 [Compound 2471, tBu-Oxadelta-PLH-m-OEt] showed an EC50 [2, 5] of 1.01e-07 M.

With Cc1ccccc1/C=c1\[nH]c(=O)/c(=C/c2ncoc2C(C)(C)C)[nH]c1=O [Compound 2472, tBu-Oxadelta-PLH-o-Me] the EC50 ([2]; HT-29, read-out: EC50 (M) Mean) was 5.46e-08 M.

For CC(C)(C)c1ocnc1/C=c1\[nH]c(=O)/c(=C/c2cccc(Br)c2)[nH]c1=O [Compound 2473, tBu-Oxadelta-PLH-3-Br], the EC50 [2, 5] was 5.59e-08 M.

In the case of CC(C)(C)c1ocnc1/C=c1\[nH]c(=O)/c(=C/c2ccccn2)[nH]c1=O [Compound 2474, tBu-Oxadelta-PLH-2-Py], the EC50 ([2]; HT-29, read-out: EC50 (M) Mean) was > 6.32e-07 M.

CC(C)(C)c1ocnc1/C=c1\[nH]c(=O)/c(=C/c2ccccc2F)[nH]c1=O [Compound 2475, tBu-Oxadelta-PLH-2-F] was tested, and the EC50 [2, 5] was 4.66e-07 M.

For CC(C)(C)c1ocnc1/C=c1\[nH]c(=O)/c(=C/c2ccccc2[N+](=O)[O-])[nH]c1=O [Compound 2476, tBu-Oxadelta-PLH-2-NO2], the EC50 [2, 5] was 1.24e-07 M.

Compound CC(C)(C)c1ocnc1/C=c1\[nH]c(=O)/c(=C/c2cccc(OC(F)(F)F)c2)[nH]c1=O [Compound 2477, tBu-Oxadelta-PLH-m-OCF3] has an EC50 [2, 5] of 4.86e-08 M.

For COc1cc(/C=c2\[nH]c(=O)/c(=C/c3nc[nH]c3C(C)(C)C)[nH]c2=O)cc(OC)c1 [KPU-16, tBu-ΔPLH-3,5-diOMe], the EC50 ([3]; HT-29) was 42 nM, the pEC50 [3, 6] was 7.38 and the “cytotoxic activity against HT-29 cells” value [3] was “showed high activity”.

CC(C)(C)c1[nH]cnc1/C=c1\[nH]c(=O)/c(=C/c2cc([N+](=O)[O-])ccc2Cl)[nH]c1=O [KPU-21, tBu-ΔPLH-2Cl-5-NO2] showed an EC50 ([3]; HT-29) of 51 nM and a pEC50 [3, 7] of 7.29.

CC(C)(C)c1[nH]cnc1/C=c1\[nH]c(=O)/c(=C/c2ccc3c(c2)OCO3)[nH]c1=O [KPU-22, tBu-ΔPLH-3,4-methylene-dioxy] gave an EC50 ([3]; HT-29) of 82 nM and a pEC50 [3, 8] of 7.09.

COc1cccc(/C=c2\[nH]c(=O)/c(=C/c3nc[nH]c3C(C)(C)C)[nH]c2=O)c1O [KPU-23, tBu-ΔPLH-2-OH-3-OMe (o-vanillin)] showed an EC50 ([3]; HT-29) of 5870 nM and a pEC50 [3, 8] of 5.23.

Work on COc1cccc2cc3c(=O)[nH]/c(=C\c4nc[nH]c4C(C)(C)C)c(=O)n3c12 [KPU-24, tBu-ΔPLH-cyclized-3-MeO] yielded an EC50 ([3]; HT-29) of 7040 nM and a pEC50 ([3]; Table 6, proliferation of HT-29 cells, read-out: EC50) of 5.15.

Cc1ccc(/C=c2\[nH]c(=O)/c(=C/c3nc[nH]c3C(C)(C)C)[nH]c2=O)s1 [KPU-27, tBu-ΔPLH-5-Me-2-thienyl] gave an EC50 ([3]; HT-29) of 80 nM and a pEC50 [3, 9] of 7.10.

With Cc1ccsc1/C=c1\[nH]c(=O)/c(=C/c2nc[nH]c2C(C)(C)C)[nH]c1=O [KPU-29, tBu-ΔPLH-3-Me-2-thienyl] the EC50 ([3]; HT-29) was 44 nM, the pEC50 [3, 6] was 7.36 and the “cytotoxic activity against HT-29 cells” value [3] was “exhibited activity”.

Compound CC(C)(C)c1[nH]cnc1/C=c1\[nH]c(=O)/c(=C/c2cccc3c2OCO3)[nH]c1=O [KPU-30, tBu-ΔPLH-2,3-methylendioxy] has a pEC50 [3, 8] of 6.32.

With Cc1cccc(/C=c2\[nH]c(=O)/c(=C/c3nc[nH]c3C(C)(C)C)[nH]c2=O)n1 [KPU-33, tBu-ΔPLH-3-Me-2-pyridyl] the pEC50 [3, 9] was < 4.70.

For Cc1[nH]cnc1/C=c1\[nH]c(=O)/c(=C/c2nc[nH]c2C(C)(C)C)[nH]c1=O [KPU-36, tBu-ΔPLH-5-Me-4-im], the pEC50 [3, 9] was 5.55.

With CC(C)(C)c1[nH]cnc1/C=c1\[nH]c(=O)/c(=C/c2ccc(C#N)cc2)[nH]c1=O [KPU-43, tBu-ΔPLH-p-CN] the pEC50 [3, 7] was < 4.70.

With COc1cc(OC)c(/C=c2\[nH]c(=O)/c(=C/c3nc[nH]c3C(C)(C)C)[nH]c2=O)c(OC)c1 [KPU-45, tBu-ΔPLH-2,4,6-TriOMe] the “cytotoxic activity against HT-29 cells” value [3] was “also showed activity”.

Compound CC(C)(C)c1[nH]cnc1/C=c1\[nH]c(=O)/c(=C/c2cc(Cl)ccc2[N+](=O)[O-])[nH]c1=O [KPU-52, tBu-ΔPLH-2-NO2-5-Cl] has a pEC50 [3, 7] of 6.96.

With COc1ccc(O)c(/C=c2\[nH]c(=O)/c(=C/c3nc[nH]c3C(C)(C)C)[nH]c2=O)c1 [KPU-54, tBu-ΔPLH-2-OH-5-OMe] the pEC50 [3, 8] was < 4.70.

In the case of COc1ccc(/C=c2\[nH]c(=O)/c(=C/c3nc[nH]c3C(C)(C)C)[nH]c2=O)cc1O [KPU-57, tBu-delta-PLH-3-OH-4-OMe], the pEC50 [3, 8] was < 4.70.

COc1ccc(/C=c2\[nH]c(=O)/c(=C/c3nc[nH]c3C(C)(C)C)[nH]c2=O)c(O)c1 [KPU-58, tBu-ΔPLH-2-OH-4-OMe] was tested, and the pEC50 [3, 8] was < 4.70.

CC(C)(C)c1[nH]cnc1/C=c1\[nH]c(=O)/c(=C/c2ccc(Cl)s2)[nH]c1=O [KPU-61, tBu-ΔPLH-5-Cl-2-thionyl] showed a pEC50 ([3]; HT-29, Table 11, replacement with the heteroaryl ring, proliferation of HT-29 cells) of 6.74.

Cn1cccc1/C=c1\[nH]c(=O)/c(=C/c2nc[nH]c2C(C)(C)C)[nH]c1=O [KPU-63, tBu-ΔPLH-N-Me-2-pyrrole] showed a pEC50 [3, 9] of 6.98.

With CC(C)(C)c1[nH]cnc1/C=c1\[nH]c(=O)/c(=C/c2cccc(OC(F)(F)F)c2)[nH]c1=O [KPU-80, TBu-ΔPLH-m-OCF3] the pEC50 [3, 6] was 7.89 and the “activity compared with tBu-dehydroPLH” value [3] was “higher activity than tBu-dehydroPLH”.

With COc1ccc(F)c(/C=c2\[nH]c(=O)/c(=C/c3nc[nH]c3C(C)(C)C)[nH]c2=O)c1 [KPU-81, TBu-ΔPLH-2-F-5-OMe] the pEC50 [3, 6] was 7.72 and the “activity compared with tBu-dehydroPLH” value [3] was “higher activity than tBu-dehydroPLH”.

Cc1cccc(/C=c2\[nH]c(=O)/c(=C/c3nc[nH]c3C(C)(C)C)[nH]c2=O)c1C [KPU-90, 3-{(Z)-1-[5-(tert-Butyl)-1H-4-imidazolyl]methylidene}-6-[(Z)-1-(2,3-dimethylphenyl)methylidene]-2,5-piperazinedione] was tested, and the “potency relative to dehydroPLH” value [3] was 16 times, the “potency relative to tBu-dehydroPLH” value [3] was 4 times and the pEC50 [3, 6] was 8.52. The pEC50 ([3]; HT-29, text to Table 5, most potent compound, read-out: EC50 value) was 8.52.

With CC(C)(C)c1[nH]cnc1/C=c1\[nH]c(=O)/c(=C/c2ccccc2)[nH]c1=O [tBu-dehydrophenylahistin, 3-Z-Benzylidene-6-(5″-tert-butyl-1H-imidazol-4″-Z-ylmethylene)-piperazine-2,5-dione] the “greater cytotoxic activity in comparison with dehydrophenylahistin” value ([3]; Table 1 text) was ~4 times.
